According to patent US4711898A, “4-quinolone derivatives having anti-inflammatory, anti-allergic, antitussive, expectorant and antithrombotic activity” (Nippon Shinyaku Co., Ltd., priority 1982, dated 1987):

What was measured:
[1] = tested on: SRS-A (slow reacting substance of anaphylaxis) contraction of ileum; assay: Anti-SRS-A action using ileus of guinea pigs; format: cell-based, Hartley strain male guinea pigs; conditions: 5 min, guinea pig ileum, SRS-A 20 units, compound five minutes before; for inhibition at 1 µM: Cavia porcellus, 1/1000 mM, read-out: 1/1000 mM SRS-A Inhibition Ratio %; for 1/1000 mM SRS-A Inhibition Ratio %: Na salt, 1 µM
Experimental: (§1) The compounds of the present invention have been evaluated for their anti-allergenic action by passive cutaneous anaphylatic assay (PCA) in rats and by measuring the anti-SRS-A action using ileus of guinea pigs.
Anti-SRS-A action (An anti-acton against slow reacting substance of anaphylaxis).
Hartley strain male guinea pigs (300 to 350 grams body weight) are killed and 1.0 to 1.5 cm of ileum is immeidiately excised from ileocecal parts and is suspended in 10 ml of Tyrode solution (95% 02 -5% CO2 saturation) containing 10^-7 g/ml of atropine and 10^-6 g/ml of pyrilamine. SRS-A (20 units) (the amount of SRS-A showing the same contradiction as 5 ng of histamine is defined as 1 unit) prepared by using sensitized guinea pig lung is given to cause contraction there. Then antagonistic action of test compounds treated five minutes ago against the contraction is measured and recorded via isotonic transducer. [formula] in which A' is a height of contraction of SRS-A+test compound and A is that of SRS-A.

[2] = tested on: passive cutaneous anaphylaxis (DNP-As homocytotropic antiserum); assay: passive cutaneous anaphylatic assay (PCA) in rats; format: in vivo, Wistar strain rats; conditions: 10 mg/kg orally, one hour before antigen; for inhibition in vivo at 10 mg/kg: Rattus norvegicus, po, 1 h, read-out: PCA Inhibition Ratio %; for PCA Inhibition Ratio %: Na salt
Experimental: as §1
(i) Antiserum abundant in homocytotropic antibody is prepared by the same method as Tada and Okumura did (cf. Journal of Immunology, vol. 106, page 1002, 1971). Thus, 1 mg (calculated as an amount of protein) of DNP-As (2,4-dinitrophenylcoupled ascaris extract) prepared by methods of Strejan and Campbell (Journal of Immunology, vol. 98, p. 893, 1967) and of Eisen (Journal of Amer. Chem. Soc., vol. 75, p 4593, 1953) and 1×10^10pertussis vaccine are administered to each paw of Wistar strain rats (180 to 200 grams body weights) by dividing the dose by four. Five days later, 0.5 mg of DNP-As is administered into muscle of back. Eight days later from the initial immunization, blood is taken from discending aorta under anesthetizing with ether, the resulting serum is stored at -80° and is melted before use.
(ii) Effect of tested compounds is investigated as follows:
Anti-serum obtained by th method (i) is diluted with physiological saline solution double by double successively and 0.05 ml of each diluted solution is administered into the back of Wistar strain rats (140 to 160 grams body weight) intradermally. After 72 hours, a solution of 2 mg (calculated as protein) of DNP-As and 2.5 mg of Evans Blue dissolved in 1 ml of physiological saline solution is administered intraveously at a dose of 5 ml/kg. After 30 minutes from the antigen solution administration, the animals are killed and the diameters of blue spots which appeared at the place where antiserum was administered were measured. The PCA test is conducted by the same method as already described using a diluted solutions of antiserum which always show 10 mm or more of spot diameters and the effect of the test compounds is judged. Thus antiserum diluted solutions are administered into two places in the back. Test compounds are administered orally at the dose of 10 mg/kg one hour before administration of the antigen solution. From the skin of reacted parts of killed animals, leaked or emitted dyestuff is extracted and the amount of the dyestuff is measured. The inhibition ratio is calculated by the following expression: [formula] in which A' is an amount of dyestuff in the group treated with the test compounds and A is that in the control group.

| Structure (SMILES) | inhibition at 1 µM [1] | inhibition in vivo at 10 mg/kg [2] | further results |
| --- | --- | --- | --- |
| CCOC(=O)c1cccc2c(=O)cc(-c3ccccc3F)[nH]c12 [2-Fluoro, Ethyl] | 33.3% | 28.5% |  |
| CCOC(=O)c1cccc2c(=O)cc(-c3ccc(OC)cc3)[nH]c12 [4-Methoxy, Ethyl] | 20.3% | 3.2% |  |
| O=C(O)c1ccc2c(c1)C(=O)CC(c1ccccc1)=N2 [Example 2, 2-Phenyl-4-quinolone-6-carboxylic acid] | 23.9% | 22.5% |  |
| O=C(O)c1ccc2[nH]c(-c3ccccc3)cc(=O)c2c1 [Example 3, Sodium 2-phenyl-4-quinolone-6-carboxylate] | 85% | 27.9% |  |
| CC(C)OC(=O)c1ccc2c(c1)C(=O)CC(c1ccccc1)=N2 [Example 5, Isopropyl 2-phenyl-4-quinolone-6-carboxylate] | 36.7% | 26.2% |  |
| O=C(OCCc1ccccc1)c1ccc2c(c1)C(=O)CC(c1ccccc1)=N2 [Example 6, Phenethyl 2-phenyl-4-quinolone-6-carboxylate] | 22.8% | 24.3% |  |
| COC(=O)c1ccc2c(c1)c(=O)cc(-c1ccccc1)n2C [Example 7, Methyl 1-methyl-2-phenyl-4-quinolone-6-carboxylate] | 100% | 21.3% |  |
| Cn1c(-c2ccccc2)cc(=O)c2cc(C(=O)O)ccc21 [Example 8, 1-Methyl-2-phenyl-4-quinolone-6-carboxylic acid] | 22% | 16.2% |  |
| COC(=O)c1ccc2c(c1)C(=O)C(C)C(c1ccccc1)=N2 (centres unmarked) [Example 9, Methyl 3-methyl-2-phenyl-4-quinolone-6-carboxylate] | 54.8% | 26.8% |  |
| Cc1c(-c2ccccc2)[nH]c2ccc(C(=O)O)cc2c1=O [Example 10] | 21% | 22.4% |  |
| C=CCc1c(-c2ccccc2)[nH]c2ccc(C(=O)OC)cc2c1=O [Example 11] | 37.5% | 20.1% |  |
| C=CCc1c(-c2ccccc2)[nH]c2ccc(C(=O)O)cc2c1=O [Example 12] | 22.3% | 17.5% |  |
| CCn1c(-c2ccccc2)cc(=O)c2cc(C(=O)OC)ccc21 [Example 13] | 25.4% | 18.9% |  |
| CCn1c(-c2ccccc2)cc(=O)c2cc(C(=O)O)ccc21 [Example 14] | 28.9% | 16.4% |  |
| CCCn1c(-c2ccccc2)cc(=O)c2cc(C(=O)OC)ccc21 [Example 15] | 65.3% | 19.7% |  |
| CCCn1c(-c2ccccc2)cc(=O)c2cc(C(=O)O)ccc21 [Example 16] | 19.7% | 23.4% |  |
| C=CCn1c(-c2ccccc2)cc(=O)c2cc(C(=O)OC)ccc21 [Example 17] | 22.7% | 20.4% |  |
| C=CCn1c(-c2ccccc2)cc(=O)c2cc(C(=O)O)ccc21 [Example 18] | 24.3% | 26.5% |  |
| CCCCCCn1c(-c2ccccc2)cc(=O)c2cc(C(=O)OC)ccc21 [Example 19] | 27.5% | 27% |  |
| O=C(O)c1ccc2[nH]c(-c3ccccc3Cl)cc(=O)c2c1 [Example 23] |  |  | 1/1000 mM SRS-A Inhibition Ratio % ([1]; listed as 2-Chloro): 24.9%; PCA Inhibition Ratio % ([2]; listed as 2-Chloro): 18.7% |
| COC(=O)c1ccc2[nH]c(-c3ccccc3Br)cc(=O)c2c1 [Example 24] | 55.8% | 23.4% |  |
| O=C(O)c1ccc2[nH]c(-c3ccccc3Br)cc(=O)c2c1 [Example 25] | 25.7% | 17.2% |  |
| COC(=O)c1ccc2[nH]c(-c3ccccc3F)cc(=O)c2c1 [Example 26] | 38.5% | 20.6% |  |

| Structure (SMILES) | inhibition at 1 µM [1] | inhibition in vivo at 10 mg/kg [2] | further results |
| --- | --- | --- | --- |
| O=C(O)c1ccc2[nH]c(-c3ccccc3F)cc(=O)c2c1 [Example 27] | 23.4% | 25.6% |  |
| O=C(O)c1ccc2[nH]c(-c3cccc(Cl)c3)cc(=O)c2c1 [Example 30] | 24.5% | 43% |  |
| O=C(O)c1ccc2[nH]c(-c3cccc(Cl)c3)cc(=O)c2c1 [Example 31] |  |  | 1/1000 mM SRS-A Inhibition Ratio % ([1]; listed as 3-Chloro): 25.5%; PCA Inhibition Ratio % ([2]; listed as 3-Chloro): 24.4% |
| COC(=O)c1ccc2[nH]c(-c3ccc(Cl)cc3)cc(=O)c2c1 [Example 32] | 20.6% | 24.4% |  |
| O=C(O)c1ccc2[nH]c(-c3ccc(Cl)cc3)cc(=O)c2c1 [Example 33] | 22.5% | 22.3% |  |
| COC(=O)c1ccc2[nH]c(-c3ccc(Cl)cc3Cl)cc(=O)c2c1 [Example 34] | 19.3% | 17.4% |  |
| O=C(O)c1ccc2[nH]c(-c3ccc(Cl)cc3Cl)cc(=O)c2c1 [Example 35] | 25.6% | 39.4% |  |
| O=C(O)c1ccc2[nH]c(-c3ccc(Cl)cc3Cl)cc(=O)c2c1 [Example 36] |  |  | 1/1000 mM SRS-A Inhibition Ratio % ([1]; listed as 2,4-Dichloro): 14.5%; PCA Inhibition Ratio % ([2]; listed as 2,4-Dichloro): 20.4% |
| COC(=O)c1ccc2[nH]c(-c3ccc(Cl)c(Cl)c3)cc(=O)c2c1 [Example 37] | 24.3% | 17.1% |  |
| O=C(O)c1ccc2[nH]c(-c3cc(Cl)ccc3Cl)cc(=O)c2c1 [Example 40] | 27.5% | 25.4% |  |
| Cc1ccccc1-c1cc(=O)c2cc(C(=O)O)ccc2[nH]1 [Example 43] |  |  | 1/1000 mM SRS-A Inhibition Ratio % ([1]; listed as 2-Methyl): 17.3%; PCA Inhibition Ratio % ([2]; listed as 2-Methyl): 24.8% |
| CCc1ccccc1-c1cc(=O)c2cc(C(=O)OC)ccc2[nH]1 [Example 44] | 41.3% | 18% |  |
| CCc1ccccc1-c1cc(=O)c2cc(C(=O)O)ccc2[nH]1 [Example 45] | 25.4% | 24.2% |  |
| COC(=O)c1ccc2[nH]c(-c3ccc(C)cc3)cc(=O)c2c1 [Example 46] | 19.8% | 27.3% |  |
| Cc1ccc(-c2cc(=O)c3cc(C(=O)O)ccc3[nH]2)cc1 [Example 47] | 18.9% | 17.3% |  |
| COC(=O)c1ccc2[nH]c(-c3ccc(C(C)C)cc3)cc(=O)c2c1 [Example 48] | 24.2% | 26.4% |  |
| CC(C)c1ccc(-c2cc(=O)c3cc(C(=O)O)ccc3[nH]2)cc1 [Example 49] | 18.8% | 25.2% |  |
| CCCCCc1ccc(-c2cc(=O)c3cc(C(=O)OC)ccc3[nH]2)cc1 [Example 50] | 36% | 19.4% |  |
| CCCCCc1ccc(-c2cc(=O)c3cc(C(=O)O)ccc3[nH]2)cc1 [Example 51] | 61.4% | 22.7% |  |
| COC(=O)c1ccc2[nH]c(-c3cccc(C(F)(F)F)c3)cc(=O)c2c1 [Example 52] | 21.3% | 25% |  |
| O=C(O)c1ccc2[nH]c(-c3cccc(C(F)(F)F)c3)cc(=O)c2c1 [Example 53] | 30% | 22.4% |  |
| COC(=O)c1ccc2[nH]c(-c3ccc(C)cc3C)cc(=O)c2c1 [Example 54] | 22.4% | 18.9% |  |
| Cc1ccc(-c2cc(=O)c3cc(C(=O)O)ccc3[nH]2)c(C)c1 [Example 55] | 17.5% | 16.8% |  |
